{"source": "patent US20040166575A1", "about": "“Inosine producing bacterium belonging to the genus Bacillus and method for producing inosine” (priority 2003, published 2004)", "key": {"[1]": {"system": "6-ethoxypurine-resistant strain EP1 (AJ13937)", "experiment": "Assay for degree of 6-ethoxypurine resistance: colony growth on minimal medium plate, EP1 strain", "format": "cell-based, Bacillus subtilis", "conditions": "for Relative growth degree / Diameter of colony: EP1; for Relative growth degree: colony diameter with 2000 mg/L 6-ethoxypurine / without ×100; for Diameter of colony: minimal medium plate containing 6-ethoxypurine (2000 μg/mL)"}, "[2]": {"system": "Bacillus subtilis recombinant strain KMBS16 (purR, purA, deoD deficient)", "experiment": "Assay for degree of 6-ethoxypurine resistance: colony growth on minimal medium plate, parent strain", "format": "cell-based", "conditions": "for Relative growth degree / Diameter of colony: KMBS16; for Relative growth degree: colony diameter with 2000 mg/L 6-ethoxypurine / without ×100; for Diameter of colony: minimal medium plate containing 6-ethoxypurine (2000 μg/mL)"}, "[3]": {"system": "6-ethoxypurine-resistant strain EP2", "experiment": "Assay for degree of 6-ethoxypurine resistance: colony growth on minimal medium plate, EP2 strain", "format": "cell-based, Bacillus subtilis", "conditions": "for Relative growth degree / Diameter of colony: EP2; for Relative growth degree: colony diameter with 2000 mg/L 6-ethoxypurine / without ×100; for Diameter of colony: minimal medium plate containing 6-ethoxypurine (2000 μg/mL)", "method": "Relative growth degree (%)=[colony diameter (mm) observed in the medium containing 6-ethoxypurine]/[colony diameter (mm) observed in the medium not containing 6-ethoxypurine]×100\nThe Bacillus subtilis recombinant strain KMBS16 deficient in the purine operon repressor gene (purR), succinyl-AMP synthase gene (purA) and purine nucleoside phosphorylase gene (deoD) was treated with 400 μg/ml of nitrosoguanidine (NTG) at 37° C. for 30 minutes. Then, the NTG-treated cell suspension was spread on a minimal medium (20 g/L of glucose, 5 g/L of ammonium chloride, 4 g/L of potassium dihydrogenphosphate, 0.01 g/L of ferrous sulfate, 0.01 g/L of manganese sulfate, 0.5 g/L of sodium citrate, 1.0 g/L of L-glutamic acid, 0.1 g/L of adenine, 50 mg/L of tryptophan, pH 7.0) plate containing 2000 mg/L of 6-ethoxypurine, and the cells were cultured at 37° C. for 24 hours. […] The EP1 strain was given a private number of AJ13937. This strain was deposited at the independent administrative agency, National Institute of Advanced Industrial Science and Technology, International Patent Organism Depositary (Tsukuba Central 6, 1-1, Higashi 1-Chome, Tsukuba-shi, Ibaraki-ken, 305-8566, Japan) on Dec. 25, 2001 and received an accession number of FERM P-18665. Then, it was transferred to an international deposit under the provisions of the Budapest Treaty on Jan. 14, 2004, and received an accession number of FERM BP-08595.\nDegree of 6-ethoxypurine resistance of the mutant strain obtained as described above was examined in detail. The parent strain and the mutant strain were adenine auxotrophic, and the drug used was a purine analogue. Therefore, the amount of adenine added to the minimal medium was limited to the required minimum level (2 mg/L in this example).\nThe 6-ethoxypurine-resistant strains (EP1 strain and EP2 strain) and the parent strain KMBS16 were each inoculated into the minimum liquid medium and cultured overnight at 34° C. The cells were separated from the culture broth by centrifugation, washed three times with the minimal medium and suspended again in the same medium. The suspension was appropriately diluted with the same medium and spread on a minimal medium plate and a minimal medium plate containing 2000 mg/L of 6-ethoxypurine, and the cells were cultured at 34° C. […] The culture was continued even thereafter, and diameters of several single colonies were measured after […] to 66 hours. An average of colony diameters was calculated for each strain, and the relative growth degree was calculated according to the aforementioned equation.\nIn the tables, the symbol “−” means that no colony could be confirmed, and the symbol “±” means that since the colonies were indefinite, the diameters could not be measured."}}, "note": "Where “and” joins values, the source holds several entries; their conditions need not be identical. Equal values may be shown once.", "data": [{"smiles": "CCOc1ncnc2nc[nH]c12", "note": "[6-ethoxypurine]", "values": [{"measurement": "Relative growth degree", "setting": "[1]; 0 hr", "result": 0, "unit": "%"}, {"measurement": "Relative growth degree", "setting": "[1]; 42 hr", "result": "80.0% and 100.0%"}, {"measurement": "Relative growth degree", "setting": "[1]; 45 hr", "result": 83.3, "unit": "%"}, {"measurement": "Relative growth degree", "setting": "[1]; 48 hr", "result": 80.0, "unit": "%"}, {"measurement": "Relative growth degree", "setting": "[1]; 52 hr", "result": 100.0, "unit": "%"}, {"measurement": "Diameter of colony", "setting": "[1]; 34° C., 28 hr", "result": "±"}, {"measurement": "Diameter of colony", "setting": "[1]; 34° C., 42 hr", "result": "1.00 mm and 0.80 mm"}, {"measurement": "Diameter of colony", "setting": "[1]; 34° C., 45 hr", "result": "1.20 mm and 1.00 mm"}, {"measurement": "Diameter of colony", "setting": "[1]; 34° C., 48 hr", "result": "1.50 mm and 1.20 mm"}, {"measurement": "Diameter of colony", "setting": "[1]; 34° C., 52 hr", "result": 1.50, "unit": "mm"}, {"measurement": "Diameter of colony", "setting": "[1]; 34° C., 66 hr", "result": "2.00 mm and 2.50 mm"}, {"measurement": "colony formation after 24 hours", "setting": "[1]; EP1 strain, minimal medium plate containing 2000 mg/L of 6-ethoxypurine, 34° C., 24 hours", "result": "minute colonies were confirmed"}, {"measurement": "Relative growth degree", "setting": "[2]; 0 hr", "result": 0, "unit": "%"}, {"measurement": "Relative growth degree", "setting": "[2]; 42 hr", "result": "50.0% and 40.0%"}, {"measurement": "Relative growth degree", "setting": "[2]; 45 hr", "result": "58.3% and 41.7%"}, {"measurement": "Relative growth degree", "setting": "[2]; 48 hr", "result": "66.7% and 50.0%"}, {"measurement": "Relative growth degree", "setting": "[2]; 52 hr", "result": 66.7, "unit": "%"}, {"measurement": "Relative growth degree", "setting": "[2]; 66 hr", "result": "62.5% and 50.0%"}, {"measurement": "Diameter of colony", "setting": "[2]; 34° C., 28 hr", "result": "−"}, {"measurement": "Diameter of colony", "setting": "[2]; 34° C., 42 hr", "result": "0.50 mm and 0.40 mm"}, {"measurement": "Diameter of colony", "setting": "[2]; 34° C., 45 hr", "result": "0.70 mm and 0.50 mm"}, {"measurement": "Diameter of colony", "setting": "[2]; 34° C., 48 hr", "result": "1.00 mm and 0.75 mm"}, {"measurement": "Diameter of colony", "setting": "[2]; 34° C., 52 hr", "result": 1.00, "unit": "mm"}, {"measurement": "Diameter of colony", "setting": "[2]; 34° C., 66 hr", "result": "1.25 mm and 1.00 mm"}, {"measurement": "colony formation after 24 hours", "setting": "[2]; parent strain KMBS16, minimal medium plate containing 2000 mg/L of 6-ethoxypurine, 34° C., 24 hours", "result": "no colony was confirmed"}, {"measurement": "Relative growth degree", "setting": "[3]; 0 hr", "result": 0, "unit": "%"}, {"measurement": "Relative growth degree", "setting": "[3]; 42 hr", "result": 100.0, "unit": "%"}, {"measurement": "Diameter of colony", "setting": "[3]; 34° C., 28 hr", "result": "±"}, {"measurement": "Diameter of colony", "setting": "[3]; 34° C., 42 hr", "result": 1.00, "unit": "mm"}, {"measurement": "Diameter of colony", "setting": "[3]; 34° C., 45 hr", "result": 1.20, "unit": "mm"}, {"measurement": "Diameter of colony", "setting": "[3]; 34° C., 48 hr", "result": 1.50, "unit": "mm"}, {"measurement": "Diameter of colony", "setting": "[3]; 34° C., 52 hr", "result": 1.50, "unit": "mm"}, {"measurement": "Diameter of colony", "setting": "[3]; 34° C., 66 hr", "result": 2.00, "unit": "mm"}, {"measurement": "colony formation after 24 hours", "setting": "[3]; EP2 strain, minimal medium plate containing 2000 mg/L of 6-ethoxypurine, 34° C., 24 hours", "result": "minute colonies were confirmed"}]}]}
